Laboratory results published in patent US20250205242A1, “CDK7 INHIBITORS FOR ANTIVIRAL TREATMENT” (QURIENT CO., LTD., priority 2022, published 2025).

How the values were obtained:
HCMV strain AD169-GFP = assay: HCMV-GFP-based antiviral assay in HFF; format: cell-based, human cytomegalovirus
[1] = tested on: ganciclovir (GCV)-resistant HCMV strain ADP169-GFP314; assay: HCMV-GFP-based antiviral assay, ganciclovir-resistant strain; format: cell-based, human cytomegalovirus
Procedure: A series of laboratory variants of AD169-GFP virus that are resistant to GCV was generated. HFF were infected in 12-well plates at a multiplicity of infection (MOI) of 0.002 and incubated with […] Ganciclovir. GFP expression in infected cells was monitored microscopically, and the supernatants from the positive wells were transferred to fresh cells weekly. Thereby Ganciclovir concentrations were increased stepwise (a […] increase at each step) up to the point where total virus replication became critical and resistant virus was grown in individual wells. Using supernatants from these wells, two rounds of plaque purifications were performed in HFF. Finally, Ganciclovir-resistant viral clones (AD169-GFP314) which were able to replicate in the presence of […] GCV were isolated.
HFF were cultured to 90% confluency in 12-well plates and used for infection with AD169-GFP HCMV-virus at a tissue culture infective dose of 0.5 (GFP-TCID50 0.5, referring to an MOI of 0.002 as determined by plaque assay titration). Virus inoculation was performed for 90 min at 37° C. with occasional shaking before virus was removed and the cell layers were rinsed with phosphate-buffered saline (PBS). Then infected cell layers were incubated with 2.5 ml of MEM containing 5% (vol/vol) fetal calf serum with or without a dilution of one of the respective test compounds. Infected cells were incubated at 37° C. under a 5% CO2 atmosphere for 7 days. For lysis, […] of lysis buffer (25 mM Tris [pH 7.8], 2 mM dithiothreitol [DTT], 2 mM trans-1,2-diaminocyclohexane-N,N,N9,N9-tetraacetic acid, 1% Triton X-100, 10% glycerol) was added to each well and incubated for 10 min at 37° C., followed by a 30-min incubation at room temperature on a shaker. Lysates were centrifuged for 5 min at 15,000 rpm in an Eppendorf centrifuge to remove cell debris. […] The […] of compounds against virus replication was determined by EC50 (50% effective concentration).

HPV11 = assay: HPV genome replicon assay (NanoLuc) in C-33 A cells, HPV11; format: cell-based, Human Papilloma Virus; details: reference compound; value within the prescribed range
Description: C-33 A, […] were obtained from ATCC and maintained in standard growth medium of MEM with Earl's salts supplemented with 10% FBS (Hyclone, Inc. Logan UT), L-glutamine, penicillin, and gentamycin.
HPV genome replicon assay was developed and expresses the essential E1 and E2 proteins from the native promoter. The E2 origin binding protein interacts with the virus origin of replication and recruits the E1 replicative helicase which unwinds the DNA and helps to recruit the cellular DNA replication machinery (including DNA polymerases, type I and type II topoisomerases, DNA ligase, single-stranded DNA binding proteins, proliferating cell nuclear antigen). The replication complex then drives the amplification of the replicon which can be assessed by the expression of a destabilized NanoLuc reporter gene carried on the replicon. In the HPV11 assay, the replicon (pMP619) is transfected into C-33 A cells grown as monolayers in 384-well plates. At 48 h post transfection, the enzymatic activity of the destabilized NanoLuc reporter is assessed with NanoGlo reagent. […] Analysis of HPV genome replication in specific types of HPV, such as HPV6, HPV11, or HPV31 is performed with plasmid systems that utilize each HPV type.

Structure (SMILES) | antiviral effectiveness against non-resistant viruses (HCMV strain AD169-GFP) | antiviral effectiveness against viruses resistant to nucleobase analogue drugs [1] | EC50 (HPV11) [µM]
C=C(F)C(=O)Nc1ccc2c(-c3ccccc3CNc3nc(N[C@@H]4CCC(C)(C)NC4)nc4c(C(C)C)cnn34)nccc2c1 [Compound 174] | highly effective | highly effective | –
C=C(F)C(=O)Nc1ccc2c(-c3ccccc3CNc3nc(NC4CCC(C)(C)NC4)nc4c(C(C)C)cnn34)nccc2c1 (stereo not shown) [Compound 175] | highly effective | highly effective | –
C=C(F)C(=O)Nc1ccc2c(-c3ccccc3CNc3nc(OC4CCC(C)(C)NC4)nc4c(C(C)C)cnn34)nccc2c1 (stereo not shown) [Compound 177] | highly effective | highly effective | –
Nc1nc2c(ncn2CCOCP(=O)(O)O)c(=O)[nH]1 [PMEG] | – | – | 2 to 9.2
